Measurements as given in ChEMBL document CHEMBL3046026, “Evaluation of the curative and protectant activity of fungicides and fungicide-adjuvant mixtures on Phomopsis cane and leaf spot of grape: A controlled environment study” (2007).
Calls of active or inactive are those of the source. The calls are words filed in the database; no cut-off is given here.

What was measured:
Diaporthe ampelina [1] = test: Antifungal activity against Diaporthe ampelina infected grape plant assessed as disease severity at internodes at 2.6 kg/ha incubated for 24 hr prior to treatment with 20 hr wetness period followed by 4 hr drying period measured after 4 weeks in presence of regulaid (reference value: 3.2%); format: functional
Diaporthe ampelina [2] = test: Antifungal activity against Diaporthe ampelina infected grape plant assessed as disease severity at internodes at 1.19 kg a.i./ha incubated for 20 hr prior to treatment with 16 hr wetness period and 4 hr drying time measured after 4 weeks in presence of stylet oil(reference value: 7.3%); format: functional
Diaporthe ampelina [3] = test: Antifungal activity against Diaporthe ampelina infected grape plant assessed as decrease in lesions on leaf at 1.19 kg a.i./ha incubated for 24 hr prior to treatment with 20 hr wetness period followed by 4 hr drying period measured after 4 weeks relative to control in presence of stylet oil; format: functional, organism-based
Diaporthe ampelina [4] = test: Antifungal activity against Diaporthe ampelina infected grape plant assessed as decrease in lesions on leaf at 1.19 kg a.i./ha incubated for 48 hr prior to treatment with 24 hr wetness period followed by 24 hr of drying period measured after 4 weeks relative to control in presence of stylet oil; format: functional, organism-based
Diaporthe ampelina [5] = test: Antifungal activity against Diaporthe ampelina infected grape plant assessed as disease severity at internodes at 1.19 kg a.i./ha treated 3 to 6 hr prior to inoculation followed by 24 hr wetness period measured after 4 weeks in presence of stylet-oil(reference value: 2.9%); format: functional
Diaporthe ampelina [6] = test: Antifungal activity against Diaporthe ampelina infected grape plant assessed as disease severity at internodes at 1.19 kg a.i./ha treated 3 to 6 hr prior to inoculation followed by 24 hr wetness period measured after 4 weeks (reference value: 2.6%); format: functional
Diaporthe ampelina [7] = test: (§1) Antifungal activity against Diaporthe ampelina infected grape plant assessed as disease severity at internodes at 1.19 kg a.i./ha incubated for 48 hr prior to treatment with 24 hr wetness period followed by 24 hr of drying period measured after 4 weeks in presence of regulaid (reference value: 12.2%); format: functional
Diaporthe ampelina [8] = test: Antifungal activity against Diaporthe ampelina infected grape plant assessed as disease severity at internodes at 1.19 kg a.i./ha treated 3 to 6 hr prior to inoculation followed by 24 hr wetness period measured after 4 weeks in presence of regulaid (reference value: 2.9%); format: functional
Diaporthe ampelina [9] = test: Antifungal activity against Diaporthe ampelina infected grape plant assessed as disease severity at internodes at 1.19 kg a.i./ha incubated for 20 hr prior to treatment with 16 hr wetness period and 4 hr drying time measured after 4 weeks in presence of regulaid (reference value: 7.3%); format: functional
Diaporthe ampelina [10] = test: Antifungal activity against Diaporthe ampelina infected grape plant assessed as re-isolation of mycelium from infected vines at 1.19 kg a.i./ha treated for weeks in presence of stylet oil followed by inoculation on medium measured after 72 hr (reference value: 62.5%); format: functional
Diaporthe ampelina [11] = test: Antifungal activity against Diaporthe ampelina infected grape plant assessed as decrease in lesions on leaf at 2.6 kg/ha incubated for 24 hr prior to treatment with 20 hr wetness period followed by 4 hr drying period measured after 4 weeks relative to control in presence of stylet oil; format: functional, organism-based
Diaporthe ampelina [12] = test: Antifungal activity against Diaporthe ampelina infected grape plant assessed as disease severity at internodes at 1.19 kg a.i./ha incubated for 24 hr prior to treatment with 20 hr wetness period followed by 4 hr drying period measured after 4 weeks in presence of stylet oil(reference value: 4.7%); format: functional
Diaporthe ampelina [13] = test: Antifungal activity against Diaporthe ampelina infected grape plant assessed as disease severity at internodes at 1.19 kg a.i./ha incubated for 24 hr prior to treatment with 20 hr wetness period followed by 4 hr drying period measured after 4 weeks in presence of regulaid (reference value: 4.7%); format: functional
Diaporthe ampelina [14] = test: Antifungal activity against Diaporthe ampelina infected grape plant assessed as decrease in lesions on leaf at 2.6 kg/ha incubated for 24 hr prior to treatment with 20 hr wetness period followed by 4 hr drying period measured after 4 weeks relative to control in presence of regulaid; format: functional, organism-based
Diaporthe ampelina [15] = test: as §1, with “stylet oil” for “regulaid”; format: functional
Diaporthe ampelina [16] = test: Antifungal activity against Diaporthe ampelina infected grape plant assessed as re-isolation of mycelium from infected vines at 1.19 kg a.i./ha treated for weeks in presence of regulaid followed by inoculation on medium measured after 72 hr (reference value: 62.5%); format: functional
Diaporthe ampelina [17] = test: Antifungal activity against Diaporthe ampelina infected grape plant assessed as decrease in lesions on leaf at 1.19 kg a.i./ha incubated for 24 hr prior to treatment with 20 hr wetness period followed by 4 hr drying period measured after 4 weeks relative to control in presence of regulaid; format: functional, organism-based
Diaporthe ampelina [18] = test: Antifungal activity against Diaporthe ampelina infected grape plant assessed as decrease in lesions on leaf at 1.19 kg a.i./ha treated 3 to 6 hr prior to inoculation followed by 24 hr wetness period measured after 4 weeks relative to control in presence of stylet oil; format: functional, organism-based
Diaporthe ampelina [19] = test: Antifungal activity against Diaporthe ampelina infected grape plant assessed as decrease in lesions on leaf at 1.19 kg a.i./ha incubated for 20 hr prior to treatment with 16 hr wetness period and 4 hr drying time measured after 4 weeks relative to control in presence of regulaid; format: functional, organism-based
Diaporthe ampelina [20] = test: Antifungal activity against Diaporthe ampelina infected grape plant assessed as decrease in lesions on leaf at 1.19 kg a.i./ha incubated for 48 hr prior to treatment with 24 hr wetness period followed by 24 hr of drying period measured after 4 weeks relative to control in presence of regulaid; format: functional, organism-based
Diaporthe ampelina [21] = test: Antifungal activity against Diaporthe ampelina infected grape plant assessed as decrease in lesions on leaf at 1.19 kg a.i./ha treated 3 to 6 hr prior to inoculation followed by 24 hr wetness period measured after 4 weeks relative to control; format: functional, organism-based
Diaporthe ampelina [22] = test: Antifungal activity against Diaporthe ampelina infected grape plant assessed as decrease in lesions on leaf at 1.19 kg a.i./ha incubated for 20 hr prior to treatment with 16 hr wetness period and 4 hr drying time measured after 4 weeks relative to control in presence of stylet oil; format: functional, organism-based
Diaporthe ampelina [23] = test: Antifungal activity against Diaporthe ampelina infected grape plant assessed as disease severity at internodes at 2.6 kg/ha incubated for 24 hr prior to treatment with 20 hr wetness period followed by 4 hr drying period measured after 4 weeks in presence of stylet oil(reference value: 3.2%); format: functional
Diaporthe ampelina [24] = test: Antifungal activity against Diaporthe ampelina infected grape plant assessed as decrease in lesions on leaf at 1.19 kg a.i./ha treated 3 to 6 hr prior to inoculation followed by 24 hr wetness period measured after 4 weeks relative to control in presence of regulaid; format: functional, organism-based
Diaporthe ampelina [25] = test: Antifungal activity against Diaporthe ampelina infected grape plant assessed as disease severity at internodes at 0.12 kg a.i./ha treated 3 to 6 hr prior to inoculation followed by 24 hr wetness period measured after 4 weeks (reference value: 2.6%); format: functional
Diaporthe ampelina [26] = test: Antifungal activity against Diaporthe ampelina infected grape plant assessed as disease severity at internodes at 0.12 kg a.i./ha incubated for 24 hr prior to treatment with 20 hr wetness period followed by 4 hr drying period measured after 4 weeks in presence of regulaid (reference value: 4.7%); format: functional
Diaporthe ampelina [27] = test: Antifungal activity against Diaporthe ampelina infected grape plant assessed as decrease in lesions on leaf at 0.12 kg a.i./ha incubated for 20 hr prior to treatment with 16 hr wetness period and 4 hr drying time measured after 4 weeks relative to control in presence of regulaid; format: functional, organism-based
Diaporthe ampelina [28] = test: Antifungal activity against Diaporthe ampelina infected grape plant assessed as re-isolation of mycelium from infected vines at 0.12 kg a.i./ha treated for weeks in presence of regulaid followed by inoculation on medium measured after 72 hr (reference value: 62.5%); format: functional
Diaporthe ampelina [29] = test: Antifungal activity against Diaporthe ampelina infected grape plant assessed as decrease in lesions on leaf at 0.12 kg a.i./ha incubated for 48 hr prior to treatment with 24 hr wetness period followed by 24 hr of drying period measured after 4 weeks relative to control in presence of regulaid; format: functional, organism-based
Diaporthe ampelina [30] = test: as §1, with “0.12” for “1.19”; format: functional
Diaporthe ampelina [31] = test: Antifungal activity against Diaporthe ampelina infected grape plant assessed as disease severity at internodes at 0.12 kg a.i./ha incubated for 20 hr prior to treatment with 16 hr wetness period and 4 hr drying time measured after 4 weeks in presence of regulaid (reference value: 7.3%); format: functional
Diaporthe ampelina [32] = test: Antifungal activity against Diaporthe ampelina infected grape plant assessed as disease severity at internodes at 0.5 kg/ha incubated for 24 hr prior to treatment with 20 hr wetness period followed by 4 hr drying period measured after 4 weeks in presence of regulaid (reference value: 3.2%); format: functional
Diaporthe ampelina [33] = test: Antifungal activity against Diaporthe ampelina infected grape plant assessed as decrease in lesions on leaf at 0.12 kg a.i./ha incubated for 24 hr prior to treatment with 20 hr wetness period followed by 4 hr drying period measured after 4 weeks relative to control in presence of regulaid; format: functional, organism-based
Diaporthe ampelina [34] = test: Antifungal activity against Diaporthe ampelina infected grape plant assessed as decrease in lesions on leaf at 0.12 kg a.i./ha treated 3 to 6 hr prior to inoculation followed by 24 hr wetness period measured after 4 weeks relative to control in presence of regulaid; format: functional, organism-based
Diaporthe ampelina [35] = test: Antifungal activity against Diaporthe ampelina infected grape plant assessed as decrease in lesions on leaf at 0.5 kg/ha incubated for 24 hr prior to treatment with 20 hr wetness period followed by 4 hr drying period measured after 4 weeks relative to control in presence of regulaid; format: functional, organism-based
Diaporthe ampelina [36] = test: Antifungal activity against Diaporthe ampelina infected grape plant assessed as decrease in lesions on leaf at 0.12 kg a.i./ha treated 3 to 6 hr prior to inoculation followed by 24 hr wetness period measured after 4 weeks relative to control; format: functional, organism-based
Diaporthe ampelina [37] = test: Antifungal activity against Diaporthe ampelina infected grape plant assessed as disease severity at internodes at 0.12 kg a.i./ha treated 3 to 6 hr prior to inoculation followed by 24 hr wetness period measured after 4 weeks in presence of regulaid (reference value: 2.9%); format: functional

For `COC(=O)NC(=S)Nc1ccccc1NC(=S)NC(=O)OC` [THIOPHANATE METHYL], the Activity (Diaporthe ampelina [1]) was 0.7%, the Activity (Diaporthe ampelina [2]) was 7.5% and the Activity (Diaporthe ampelina [3]) was “inactive”. For the same compound, the Activity (Diaporthe ampelina [4]) was “inactive”, the Activity (Diaporthe ampelina [5]) was 2% and the Activity (Diaporthe ampelina [6]) was 0.1%. The Activity (Diaporthe ampelina [7]) was 3.8%, the Activity (Diaporthe ampelina [8]) was 1% and the Activity (Diaporthe ampelina [9]) was 4%. The Activity (Diaporthe ampelina [10]) was 41.1%, the Activity (Diaporthe ampelina [11]) was “inactive” and the Activity (Diaporthe ampelina [12]) was 0.7%. For the same compound, the Activity (Diaporthe ampelina [13]) was 3.3%, the Activity (Diaporthe ampelina [14]) was “inactive” and the Activity (Diaporthe ampelina [15]) was 5.1%. The Activity (Diaporthe ampelina [16]) was 37.1%, the Activity (Diaporthe ampelina [17]) was “inactive” and the Activity (Diaporthe ampelina [18]) was “Active”. For the same compound, the Activity (Diaporthe ampelina [19]) was “inactive”, the Activity (Diaporthe ampelina [20]) was “inactive” and the Activity (Diaporthe ampelina [21]) was “Active”. The Activity (Diaporthe ampelina [22]) was “inactive”, the Activity (Diaporthe ampelina [23]) was 1.8% and the Activity (Diaporthe ampelina [24]) was “Active”.
With `CCCCC(C#N)(Cn1cncn1)c1ccc(Cl)cc1` (configuration not stated) [MYCLOBUTANIL] the Activity (Diaporthe ampelina [25]) was 0.6%, the Activity (Diaporthe ampelina [26]) was 3.5% and the Activity (Diaporthe ampelina [27]) was “inactive”. The Activity (Diaporthe ampelina [28]) was 68.7%, the Activity (Diaporthe ampelina [29]) was “inactive” and the Activity (Diaporthe ampelina [30]) was 6.7%. For the same compound, the Activity (Diaporthe ampelina [31]) was 5.2%, the Activity (Diaporthe ampelina [32]) was 3.1% and the Activity (Diaporthe ampelina [33]) was “inactive”. For the same compound, the Activity (Diaporthe ampelina [34]) was “inactive”, the Activity (Diaporthe ampelina [35]) was “inactive” and the Activity (Diaporthe ampelina [36]) was “inactive”. It also gave an Activity (Diaporthe ampelina [37]) of 0.1%.
